Biological target: T1, Na+, K+-ATPase (Sus scrofa, UniProt P05024)
T1 construct: gene ATP1A1; purified from pig kidney outer medulla
Assay: Na+,K+-ATPase activity inhibition, enzyme purified from pig kidney (Figure S4)
Format: biochemical

CC(C)CCn1[se]c2ccccc2c1=O [N-3mb-bs, N-3-methylbutyl-benzisoselenazol-3(2H)-one]
Na+,K+-ATPase activity inhibition, enzyme purified from pig kidney (Figure S4): both N-allyl-bs and N-3mb-bs showed Na^+, K^+-ATPase inhibitory activity (purified from pig kidney outer medulla)

C=CCn1[se]c2ccccc2c1=O [N-allyl-bs, N-allyl-benzisoselenazol-3(2H)-one]
Na+,K+-ATPase activity inhibition, enzyme purified from pig kidney (Figure S4): both N-allyl-bs and N-3mb-bs showed Na^+, K^+-ATPase inhibitory activity (purified from pig kidney outer medulla)

Reference: publication PMC10969377, “N-3-Methylbutyl-benzisoselenazol-3(2H)-one Exerts Antifungal Activity In Vitro and in a Mouse Model of Vulvovaginal Candidiasis” (Current Issues in Molecular Biology, 2024)
